Where two headings read alike, the source gives them in different places.
Experiments:
NF-κB = NF-κB assay: THP1-NF-κB-LUC cells, LPS-stimulated secreted luciferase; type: cell-based; details: THP1-NF-κB-LUC cells, read-out: IC50 (NF-κB assay)
In short: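 THP1-NF-κB-LUC cells (25k/well) were pretreated with compounds for 2 h, then stimulated with LPS (10 ng/mL) for 18 h. Secreted luciferase was measured and normalized to vehicle, and IC50 was fitted from the concentration series.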

TNF release = test: TNF assay: TNF release from LPS-stimulated human PBMCs (TNF ELISA); type: cell-based; details: PBMC, read-out: IC50 (TNF assay)
Protocol: 25k THP1-NF-κB-LUC cells were dispensed into 384 well plate (per well). Cells were treated with compounds with various concentrations for 2 hours before addition of LPS (10 ng/mL) for 18 hours. Secreted luciferase activity were measured using quant-luc reagents (1 bag of luc reagent dilute to 40 mL, use 10 μL per well). Data were normalized to vehicle control and graphed. Compound IC50 towards inhibiting NF-κB were determined through Prism. Similarly, 10k human PBMCs cells were cultured in 384 well plate (per well). Cells were treated with compounds with various concentrations for 2 hours before addition of LPS (10 ng/ml) for 18 hours, and supernatants were collected and assayed for TNF ELISA. Compound IC50 towards inhibiting TNF release were determined through Prism. • Activity: “+”>10 μM, “++”>1 μM and <10 μM, “+++”>0.1 μM and <1 μM, “++++”<0.1 μM.

[1] = compounds 2 hours before LPS (10 ng/mL) for 18 hours, secreted luciferase
[2] = human PBMCs, compounds 2 hours before LPS (10 ng/ml) for 18 hours, supernatant TNF ELISA
[3] = LPS-stimulated human PBMCs, TNF ELISA

Row | Compound | IC50 (NF-κB; [1]) [µM] | IC50 (TNF release; [2]) [µM] | IC50 (NF-κB; LPS-stimulated) [µM] | IC50 (TNF release; [3]) [µM]
1 | O=C1COc2c(cc(Br)cc2S(=O)(=O)Nc2ccc(F)cc2F)N1 [BC19178] | < 0.1 | 1 to 10 | – | –
2 | CCc1ccc(NS(=O)(=O)c2cc(Br)cc3c2OCC(=O)N3)cc1 [BC19179] | < 0.1 | > 10 | – | –
3 | CCc1cccc(NS(=O)(=O)c2cc(Br)cc3c2OCC(=O)N3)c1 [BC19180] | < 0.1 | > 10 | – | –
4 | CN1CC(=O)Nc2ccc(S(=O)(=O)N3CCCC3)cc21 [BC19181] | – | – | > 10 | > 10
5 | CC(=O)N1c2cc(S(=O)(=O)N3CCCC3)ccc2NC(=O)C1C (centres unmarked) [BC19182] | – | – | > 10 | > 10
6 | CNC(=O)N1CC(=O)Nc2ccc(S(=O)(=O)N3CCCC3)cc21 [BC19183] | – | – | > 10 | > 10
7 | CC(C)CC(=O)N1c2cc(S(=O)(=O)N3CCCC3)ccc2NC(=O)C1C (centres unmarked) [BC19184] | – | – | > 10 | > 10
8 | CN1CCN(C(=O)c2ccc3nc(-c4ccc(F)cc4)c(-c4cccs4)nc3c2)CC1 [BC19185] | – | – | < 0.1 | > 10
9 | Fc1ccc(-c2nc3cc(-c4nnn[nH]4)ccc3nc2-c2cccs2)cc1 [BC19186] | – | – | 1 to 10 | > 10
10 | NC(=O)c1ccc2nc(-c3ccc(F)cc3)c(-c3cccs3)nc2c1 [BC19187] | – | – | 0.1 to 1 | > 10
11 | CNC(=O)c1ccc2nc(-c3ccc(F)cc3)c(-c3cccs3)nc2c1 [BC19188] | – | – | 0.1 to 1 | > 10
12 | C#CCNC(=O)c1ccc2nc(-c3ccc(F)cc3)c(-c3cccs3)nc2c1 [BC19189] | – | – | 0.1 to 1 | > 10
13 | Cc1nc(-c2ccc3nc(-c4ccc(F)cc4)c(-c4ccc(F)cc4)nc3c2)no1 [BC19190] | – | – | 0.1 to 1 | > 10
14 | CN1CCN(C(=O)c2ccc3nc(-c4cccs4)cnc3c2)CC1 [BC19191] | – | – | > 10 | > 10
15 | N#Cc1ccc2nc(-c3ccc(F)cc3)c(-c3ccc(F)cc3)nc2c1 [BC19192] | – | – | 0.1 to 1 | > 10
16 | Cc1noc(-c2ccc3nc(-c4ccc(F)cc4)c(-c4ccc(F)cc4)nc3c2)n1 [BC19193] | – | – | 0.1 to 1 | > 10
17 | N=C(NO)c1ccc2nc(-c3ccc(F)cc3)c(-c3ccc(F)cc3)nc2c1 [BC19194] | – | – | < 0.1 | > 10
18 | CC(C)OC(=O)Nc1ccc2nc(-c3ccc(F)cc3)c(-c3ccc(F)cc3)nc2c1 [BC19195] | – | – | 1 to 10 | > 10
19 | O=c1c(S(=O)(=O)c2ccc(F)c(F)c2)c[nH]c2c(Cl)ccc(F)c12 [BC19196] | 0.1 to 1 | > 10 | – | –
20 | Cc1ccc(F)c2c(=O)c(S(=O)(=O)c3ccc(F)c(F)c3)c[nH]c12 [BC19197] | 0.1 to 1 | > 10 | – | –

Row | Compound | IC50 (NF-κB; [1]) [µM] | IC50 (TNF release; [2]) [µM] | IC50 (NF-κB; LPS-stimulated) [µM] | IC50 (TNF release; [3]) [µM]
21 | Cc1ccc(C)c2c(=O)c(S(=O)(=O)c3ccc(F)c(F)c3)c[nH]c12 [BC19198] | 1 to 10 | > 10 | – | –
22 | COc1ccc(Cl)c2c(=O)c(S(=O)(=O)c3ccc(F)c(F)c3)c[nH]c12 [BC19199] | 0.1 to 1 | > 10 | – | –
23 | COc1ccc(C)c2c(=O)c(S(=O)(=O)c3ccc(F)c(F)c3)c[nH]c12 [BC19200] | 1 to 10 | > 10 | – | –
24 | O=c1c(S(=O)(=O)c2ccc(F)c(F)c2)c[nH]c2ccncc12 [BC19201] | > 10 | > 10 | – | –
25 | COc1ccc2[nH]cc(S(=O)(=O)c3ccc(F)cc3)c(=O)c2n1 [BC19202] | > 10 | > 10 | – | –
26 | O=S(=O)(c1ccccc1)c1cnn(-c2ccccc2)c1 [BC19204] | – | – | > 10 | > 10
27 | O=S(=O)(c1ccccc1)c1ccn(-c2ccccc2)n1 [BC19205] | – | – | 1 to 10 | > 10
28 | CC1Oc2cc(S(=O)(=O)Nc3ccccc3)c(Cl)cc2NC1=O (centres unmarked) [BC19206] | 1 to 10 | > 10 | – | –
29 | CC(C)NS(=O)(=O)c1cc2c(cc1Cl)NC(=O)C(C)O2 (centres unmarked) [BC19207] | > 10 | > 10 | – | –
30 | CC1Oc2cc(S(=O)(=O)N3CCCC3)c(Cl)cc2NC1=O (centres unmarked) [BC19208] | > 10 | > 10 | – | –
31 | CCNS(=O)(=O)c1cc2c(cc1Cl)NC(=O)C(C)O2 (centres unmarked) [BC19209] | 1 to 10 | > 10 | – | –
32 | CCC1Oc2cc(S(=O)(=O)Nc3ccc(C(C)C)cc3)c(Cl)cc2NC1=O (centres unmarked) [BC19210] | < 0.1 | > 10 | – | –
33 | CCC1Oc2cc(S(=O)(=O)Nc3ccc(OC)cc3)c(Cl)cc2NC1=O (centres unmarked) [BC19211] | 0.1 to 1 | > 10 | – | –
34 | CCC1Oc2cc(S(=O)(=O)Nc3ccc(C)c(F)c3)c(Cl)cc2NC1=O (centres unmarked) [BC19212] | < 0.1 | > 10 | – | –
35 | CCC1Oc2cc(S(=O)(=O)Nc3cccc(SC)c3)c(Cl)cc2NC1=O (centres unmarked) [BC19213] | 0.1 to 1 | > 10 | – | –
36 | CCCNS(=O)(=O)c1cc2c(cc1Cl)NC(=O)C(CC)O2 (centres unmarked) [BC19214] | > 10 | > 10 | – | –
37 | CCC1Oc2cc(S(=O)(=O)Nc3cc(Cl)ccc3C)c(Cl)cc2NC1=O (centres unmarked) [BC19215] | 1 to 10 | > 10 | – | –
38 | CCc1ccc(NS(=O)(=O)c2cc3c(cc2Br)NC(=O)C(C)O3)cc1 (centres unmarked) [BC19216] | < 0.1 | > 10 | – | –
39 | CC1Oc2cc(S(=O)(=O)N3CCOCC3)c(Br)cc2NC1=O (centres unmarked) [BC19217] | > 10 | > 10 | – | –
40 | CC(C)CNS(=O)(=O)c1cc2c(cc1Br)NC(=O)C(C)O2 (centres unmarked) [BC19218] | > 10 | > 10 | – | –

Row | Compound | IC50 (NF-κB; [1]) [µM] | IC50 (TNF release; [2]) [µM] | IC50 (NF-κB; LPS-stimulated) [µM] | IC50 (TNF release; [3]) [µM]
41 | CC1Oc2cc(S(=O)(=O)N3CCN(C)CC3)c(Br)cc2NC1=O (centres unmarked) [BC19219] | > 10 | > 10 | – | –
42 | CCC1Oc2cc(S(=O)(=O)Nc3cccc(F)c3)c(Br)cc2NC1=O (centres unmarked) [BC19220] | 0.1 to 1 | > 10 | – | –
43 | CCC1Oc2cc(S(=O)(=O)Nc3cccc(Cl)c3)c(Br)cc2NC1=O (centres unmarked) [BC19221] | 0.1 to 1 | > 10 | – | –
44 | CCCNS(=O)(=O)c1cc2c(cc1Br)NC(=O)C(CC)O2 (centres unmarked) [BC19222] | > 10 | > 10 | – | –
45 | CCC1Oc2cc(S(=O)(=O)NC3CCCCC3)c(Br)cc2NC1=O (centres unmarked) [BC19223] | > 10 | > 10 | – | –
46 | CCC1Oc2cc(S(=O)(=O)Nc3ccc(C)cc3)c(Br)cc2NC1=O (centres unmarked) [BC19224] | 0.1 to 1 | > 10 | – | –
47 | Cc1ccc(NS(=O)(=O)c2cc(Br)cc3c2OC(C)C(=O)N3)cc1Cl (centres unmarked) [BC19225] | 0.1 to 1 | > 10 | – | –
48 | CC1Oc2c(cc(Br)cc2S(=O)(=O)N2CCOCC2)NC1=O (centres unmarked) [BC19226] | 1 to 10 | > 10 | – | –
49 | CC(C)CNS(=O)(=O)c1cc(Br)cc2c1OC(C)C(=O)N2 (centres unmarked) [BC19227] | > 10 | > 10 | – | –
50 | CC1Oc2c(cc(Br)cc2S(=O)(=O)N2CCN(C)CC2)NC1=O (centres unmarked) [BC19228] | > 10 | > 10 | – | –
51 | CCCNS(=O)(=O)c1cc(Br)cc2c1OC(CC)C(=O)N2 (centres unmarked) [BC19229] | 1 to 10 | > 10 | – | –
52 | CCC1Oc2c(cc(Br)cc2S(=O)(=O)NCc2ccccc2)NC1=O (centres unmarked) [BC19230] | < 0.1 | > 10 | – | –
53 | CCC1Oc2c(cc(Br)cc2S(=O)(=O)Nc2cccc(F)c2)NC1=O (centres unmarked) [BC19231] | < 0.1 | > 10 | – | –
54 | CCC1Oc2c(cc(Br)cc2S(=O)(=O)Nc2cccc(Cl)c2)NC1=O (centres unmarked) [BC19232] | < 0.1 | > 10 | – | –
55 | CCC1Oc2c(cc(Br)cc2S(=O)(=O)NC2CCCCC2)NC1=O (centres unmarked) [BC19233] | 1 to 10 | 1 to 10 | – | –
56 | CCC1Oc2c(cc(Br)cc2S(=O)(=O)Nc2ccc(C)cc2)NC1=O (centres unmarked) [BC19234] | < 0.1 | 1 to 10 | – | –
57 | CC1Nc2cc(S(=O)(=O)N3CCCC3)ccc2NC1=O (centres unmarked) [BC19235] | – | – | > 10 | > 10
58 | CNC(=O)N1c2cc(S(=O)(=O)N3CCCC3)ccc2NC(=O)C1C (centres unmarked) [BC19236] | – | – | > 10 | > 10

Source: patent US12606528B2, “Methods and materials for inhibiting NF-kB activity” (University of Pittsburgh - Of the Commonwealth System of …, priority 2019, dated 2026)
